The record followed here is ChEMBL document CHEMBL5046308, “Heterobifunctional Compounds as BRAF Degraders for Treating Cancer” (ACS Med Chem Lett, 2022).

Molecules are shown by their SMILES.

By DC50 is commonly meant the concentration at which degradation of the target reaches its halfway point.

The target of the experiment is Protein cereblon/Serine/threonine-protein kinase B-raf (Homo sapiens, UniProt P15056+Q96SW2, V600E). Kind of experiment: Protac activity at CRBN/BRAF V600E mutant (unknown origin) assessed as BRAF V600E degradation by HiBit cellular BRAF V600E degradation assay. In general terms: HiBiT is a short tag that completes a luciferase, so light tracks the accessible tagged protein.
Protein cereblon/Serine/threonine-protein kinase B-raf, sequence (P15056 2-766 V600E limits assumed, stated change not applied): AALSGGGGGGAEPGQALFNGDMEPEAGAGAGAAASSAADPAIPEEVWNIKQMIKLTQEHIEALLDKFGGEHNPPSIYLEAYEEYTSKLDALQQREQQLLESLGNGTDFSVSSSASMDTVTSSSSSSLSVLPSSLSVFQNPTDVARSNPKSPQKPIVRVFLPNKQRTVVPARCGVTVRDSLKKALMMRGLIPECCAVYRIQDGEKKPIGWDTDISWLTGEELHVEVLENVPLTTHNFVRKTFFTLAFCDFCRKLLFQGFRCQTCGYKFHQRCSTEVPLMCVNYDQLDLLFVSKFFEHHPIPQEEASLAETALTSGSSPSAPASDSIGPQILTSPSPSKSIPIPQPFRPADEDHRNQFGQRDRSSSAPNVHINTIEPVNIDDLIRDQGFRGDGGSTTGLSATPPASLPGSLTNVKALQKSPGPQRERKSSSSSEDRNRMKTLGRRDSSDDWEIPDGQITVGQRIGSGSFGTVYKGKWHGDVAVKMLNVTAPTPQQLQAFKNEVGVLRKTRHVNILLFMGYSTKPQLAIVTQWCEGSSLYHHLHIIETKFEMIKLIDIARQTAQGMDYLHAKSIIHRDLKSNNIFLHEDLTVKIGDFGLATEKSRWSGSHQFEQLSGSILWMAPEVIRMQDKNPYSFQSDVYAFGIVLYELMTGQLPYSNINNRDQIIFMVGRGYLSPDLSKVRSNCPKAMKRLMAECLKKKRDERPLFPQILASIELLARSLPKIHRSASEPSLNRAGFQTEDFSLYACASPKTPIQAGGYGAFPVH
Protein cereblon/Serine/threonine-protein kinase B-raf, sequence (Q96SW2 whole entry, stated change not applied): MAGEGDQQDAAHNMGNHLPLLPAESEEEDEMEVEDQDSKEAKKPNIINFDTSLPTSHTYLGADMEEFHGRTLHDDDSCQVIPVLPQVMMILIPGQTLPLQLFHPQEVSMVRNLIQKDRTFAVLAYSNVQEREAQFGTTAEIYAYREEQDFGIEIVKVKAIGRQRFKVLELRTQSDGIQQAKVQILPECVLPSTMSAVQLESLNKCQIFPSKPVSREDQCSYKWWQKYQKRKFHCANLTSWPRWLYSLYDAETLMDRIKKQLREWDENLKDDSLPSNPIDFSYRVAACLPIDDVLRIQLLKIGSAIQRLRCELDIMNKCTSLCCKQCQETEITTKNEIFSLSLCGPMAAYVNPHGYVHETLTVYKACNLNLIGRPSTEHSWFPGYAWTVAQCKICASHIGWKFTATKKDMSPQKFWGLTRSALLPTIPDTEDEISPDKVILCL
For `CCN(C)S(=O)(=O)Nc1ccc(F)c(C(=O)c2c[nH]c3ncc(-c4cnc(N5CCN(C(=O)CCCOc6cccc7c6C(=O)N(C6CCC(=O)NC6=O)C7=O)CC5)nc4)cc23)c1F` (stereo unspecified), the DC50 stood at 0.02 µM.

Regarding `CCN(C)S(=O)(=O)Nc1ccc(F)c(C(=O)c2c[nH]c3ncc(-c4ccc(N5CCN(C(=O)CCCOc6cccc7c6C(=O)N(C6CCC(=O)NC6=O)C7=O)CC5)nc4)cc23)c1F` (stereo unspecified), the DC50 was determined as 0.01 µM.

In the case of `CCN(C)S(=O)(=O)Nc1ccc(F)c(C(=O)c2c[nH]c3ncc(-c4ccc(N5CCN(C(=O)[C@H]6C[C@H](Nc7cccc8c7C(=O)N(C7CCC(=O)NC7=O)C8=O)C6)CC5)nc4)cc23)c1F` (stereo partly specified), the DC50 worked out at 0.01 µM.

As for `CCN(C)S(=O)(=O)Nc1ccc(F)c(C(=O)c2c[nH]c3ncc(-c4ccc(N5CCN(C(=O)CCCNc6cccc7c6C(=O)N(C6CCC(=O)NC6=O)C7=O)CC5)nc4)cc23)c1F` (stereo unspecified), the DC50 was found to be 0.026 µM.

`CCN(C)S(=O)(=O)Nc1ccc(F)c(C(=O)c2c[nH]c3ncc(-c4ccc(N5CCN(C(=O)CCCOc6cccc7c6C(=O)N(C6CCC(=O)NC6=O)C7=O)CC5)cc4)cc23)c1F` (stereo unspecified): the DC50 stood at 0.016 µM.

Consider `CCN(C)S(=O)(=O)Nc1ccc(F)c(C(=O)c2c[nH]c3ncc(-c4ccc(N5CCN(C(=O)[C@H]6C[C@H](Nc7cccc8c7C(=O)N(C7CCC(=O)NC7=O)C8=O)C6)CC5)cc4)cc23)c1F` (stereo partly specified), for which the DC50 is 0.023 µM.
